In US4871661A, “Process for testing the carcinogenicity of a material or the presence of cancer-inducing factors in an environment” (priority 1985, dated 1989):
Read-outs that look alike come from different tables or passages of the source.

Tests used:
[1] = tested on: cancer-associated phosphoprotein; settings: for induction of the cancer-associated phosphoprotein in the plasma: rat plasma, result in words
[2] = tested on: cancer-associated phosphoprotein; assay: ELISA assay of purified 60K plasma protein fraction from rats exposed to test compound; assay type: in vivo, rat (Sprague-Dawley strain)
Description: This example illustrates a process of the present invention in which the assay for the cancer-associated phosphoprotein is effected by means of an ELISA test.
Samples of the purified 60K protein fraction from the Sepharose CL-6B column used in Example 1 above were subjected to an ELISA assay. […] Also subjected to the same ELISA assay were purified protein fractions from the control rats and from a rat suffering from a hepatoma 7777 tumor.
The ELISA assay was conducted in the following manner. A sample of the cancer-associated phosphoprotein prepared in the manner described in Example 1 of the aforementioned parent application Ser. No. 554,439 was bound to a well in a plastic tray, and the well thereafter washed thoroughly. A polyclonal rabbit antibody serum prepared as described in Example 2 of the aforementioned parent application Ser. No. 554,439 was then mixed with the protein sample to be assayed and the resultant mixture incubated at 37° C. for 30 minutes. The mixture was then added to the well containing the cancer-associated phosphoprotein, and the tray incubated for one hour at 37° C., then washed thoroughly. Following this washing, there was added to the well a goat anti-rabbit IgG antibody serum conjugated to horseradish peroxidase enzyme, and the tray was incubated for one hour at 37° C. then washed thoroughly. The substrate for the horseradish peroxidase enzyme, namely 2,2-azino-di(3-ethylbenzthiazoline sulfonic acid) was added to the well and the tray incubated to 15 minutes at room temperature. The color development was then stopped by addition of a 2 mM solution of sodium azide and the intensity of the color in the wells determined using a spectrophotometer at […].
To determine the maximum possible optical density, a control test was run in which the test sample was replaced with a buffer containing no cancer-associated phosphoprotein; this optical density represents the maximum possible reaction of uninhibited antibody binding to the bound cancer-associated phosphoprotein. […] The optical density of a well containing as a control sample an equivalent fraction of normal rat plasma free of cancer-associated phosphoprotein is designated 0% inhibition; the optical density of this control sample should be close to that of the sample using the buffer solution The samples tested for the presence of the cancer-associated phosphoprotein are designated positive when the optical density exceeds that of the control value by two standard deviations. The concentration of cancer-associated phosphoprotein is directly related to the percentage inhibition and can be compared to that of the standard solution of the cancer-associated phosphoprotein.

rat = settings: cited from earlier work
transformed cells = settings: some types of transformed cells; cited from earlier work
[3] = tested on: cancer-associated phosphoprotein; assay type: in vivo, rat; settings: acute or chronic treatment of rats
Text: Further experiments indicate that release of the cancer-associated phosphoprotein into the plasma was not induced upon induction of liver regeneration in the rat by partial hepatectomy, nor by acute or chronic treatment of the rats with the non-carcinogenic tumor promoter phenobarbital.

[4] = ELISA inhibition, plasma fraction of treated rat, standard phosphoprotein solution = 100%, normal rat plasma fraction = 0%
[5] = 200 micromoles/kg, intraperitoneal, plasma ~21 days after exposure, control subtracted
[6] = 160 micromoles/kg, intraperitoneal, plasma ~21 days after exposure, control subtracted
[7] = 210 micromoles/kg, intraperitoneal, plasma ~21 days after exposure, control subtracted
[8] = 600 micromoles/kg, intraperitoneal, plasma ~21 days after exposure, control subtracted
[9] = 1 millimole/kg, intraperitoneal, plasma ~21 days after exposure, control subtracted

CNNC [1,2-dimethylhydrazine]
RNA-releasing Activity ([1]; 560 micromoles/kg, intraperitoneal, plasma ~21 days after exposure, control subtracted): 5.71 percent nuclear counts per min | Percentage Inhibition [2, 4]: 79%

O=[N+]([O-])c1ccc2ccc3cccc4ccc1c2c34 [1-Nitropyrene]
RNA-releasing Activity ([1]; 105 micromoles/kg, intraperitoneal, plasma ~21 days after exposure, control subtracted): 5.30 percent nuclear counts per min | Percentage Inhibition [2, 4]: 74%

Clc1cc2c(cc1Cl)Oc1cc(Cl)c(Cl)cc1O2 [2,3,7,8-Tetrachlorodibenzo-p-dioxine]
RNA-releasing Activity ([1]; 0.125 micromoles/kg, intraperitoneal, plasma ~21 days after exposure, control subtracted): 0.00 percent nuclear counts per min | induction of the cancer-associated phosphoprotein in the plasma [1]: do not induce significant quantities of the cancer-associated phosphoprotein | toxicity in the rat (rat): very potent toxins in the rat

CC(=O)Nc1ccc2c(c1)Cc1ccccc1-2 [2-Acetylaminofluorene]
RNA-releasing Activity [1, 5]: 5.11 percent nuclear counts per min | Percentage Inhibition [2, 4]: 87%

Cc1c(F)ccc2ccc3cc4ccccc4c(C)c3c12 [2-Fluoro-1,12-dimethylbenz[a]anthracene]
RNA-releasing Activity [1, 6]: 0.10 percent nuclear counts per min

Nc1ccc2ccccc2c1 [2-Naphthylamine]
RNA-releasing Activity ([1]; 500 micromoles/kg, intraperitoneal, plasma ~21 days after exposure, control subtracted): 3.29 percent nuclear counts per min

Cc1ccc2cc3c(ccc4ccccc43)c3c2c1CC3 [3-Methylcholanthrene]
RNA-releasing Activity [1, 6]: 5.62 percent nuclear counts per min

Cc1c2ccccc2c(C)c2c1ccc1ccccc12 [7,12-Dimethylbenz[a]anthracene]
RNA-releasing Activity [1, 6]: 6.42 percent nuclear counts per min

c1ccc2nc3ccccc3cc2c1 [Acridine]
RNA-releasing Activity ([1]; 15 micromoles/kg, intraperitoneal, plasma ~21 days after exposure, control subtracted): 0.00 percent nuclear counts per min | Percentage Inhibition [2, 4]: 2%

COc1cc2c(c3oc(=O)c4c(c13)CCC4=O)[C@@H]1C=CO[C@@H]1O2 [Aflatoxin B1]
RNA-releasing Activity ([1]; rat, in vivo): 4.37

COc1cc2c(c3oc(=O)c4c(c13)CCOC4=O)[C@@H]1CCO[C@@H]1O2 [Aflatoxin G2]
RNA-releasing Activity ([1]; rat, in vivo, ip): 3.80

c1ccc2cc3ccccc3cc2c1 [Anthracene]
RNA-releasing Activity [1, 6]: 0.17 percent nuclear counts per min

c1ccc2cc3c(ccc4ccccc43)cc2c1 [Benz[a]anthracene]
RNA-releasing Activity [1, 6]: 4.92 percent nuclear counts per min

c1ccc2c(c1)cc1ccc3cccc4ccc2c1c34 [Benzo[a]pyrene]
RNA-releasing Activity [1, 7]: 7.73 percent nuclear counts per min

c1ccc2c(c1)c1cccc3ccc4cccc2c4c31 [Benzo[e]pyrene]
RNA-releasing Activity [1, 7]: 3.37 percent nuclear counts per min

Cn1c(=O)c2c(ncn2C)n(C)c1=O [Caffeine]
RNA-releasing Activity ([1]; rat, in vivo, ip): 0.07 | Percentage Inhibition ([2]; rat, in vivo): 14

ClC(Cl)(Cl)Cl [Carbon tetrachloride, carbon tetrachloride]
Percentage Inhibition ([2]; ELISA inhibition, plasma fraction of treated rat, standard phosphoprotein solution = 100%, normal rat plasma fraction = 0%, listed as Carbon tetrachloride-1): 1% | Percentage Inhibition ([2]; ELISA inhibition, plasma fraction of treated rat, standard phosphoprotein solution = 100%, normal rat plasma fraction = 0%, listed as Carbon tetrachloride-2): 10%

CN(C)C=O [Dimethylformamide]
ability to induce differentiation of transformed cells (transformed cells): reversably induce the differentiation of some types of transformed cells | RNA-releasing Activity [1, 5]: 1.30 percent nuclear counts per min | induction of the cancer-associated phosphoprotein in the plasma [1]: induced significant quantities

CCOC(N)=O [Ethyl carbamate (urethane), Ethyl carbamate]
RNA-releasing Activity ([1]; 11.2 millimoles/kg, intraperitoneal, plasma ~21 days after exposure, control subtracted): 3.80 percent nuclear counts per min

c1ccc2c(c1)Cc1ccccc1-2 [Fluorene]
RNA-releasing Activity [1, 6]: 0.14 percent nuclear counts per min

CCN(N=O)C(N)=O [N--Ethyl-N--nitrosourea]
RNA-releasing Activity [1, 8]: 4.50 percent nuclear counts per min

CN(N=O)C(N)=O [N--Methyl-N--nitrosourea]
RNA-releasing Activity ([1]; 440 micromoles/kg, intraperitoneal, plasma ~21 days after exposure, control subtracted): 4.69 percent nuclear counts per min

CCCCN(CCCC)N=O [N--Nitroso-N,N--dibutylamine]
RNA-releasing Activity ([1]; 760 micromoles/kg, intraperitoneal, plasma ~21 days after exposure, control subtracted): 5.44 percent nuclear counts per min | Percentage Inhibition [2, 4]: 75%

CCN(CC)N=O [N--Nitroso-N,N--diethylamine]
RNA-releasing Activity [1, 9]: 4.21 percent nuclear counts per min

CN(C)N=O [N--Nitroso-N,N--dimethylamine]
RNA-releasing Activity ([1]; 135 micromoles/kg, intraperitoneal, plasma ~21 days after exposure, control subtracted): 3.40 percent nuclear counts per min

c1ccc2ccccc2c1 [Naphthalene]
RNA-releasing Activity [1, 9]: 0.12 percent nuclear counts per min | Percentage Inhibition [2, 4]: 18%

O=C(O)C(F)(F)C(F)(F)C(F)(F)C(F)(F)C(F)(F)C(F)(F)C(F)(F)C(F)(F)C(F)(F)F [Nonadecafluorodecanoic acid]
RNA-releasing Activity ([1]; 50 micromoles/kg, intraperitoneal, plasma ~21 days after exposure, control subtracted): 0.00 percent nuclear counts per min | induction of the cancer-associated phosphoprotein in the plasma [1]: do not induce significant quantities of the cancer-associated phosphoprotein | toxicity in the rat (rat): very potent toxins in the rat

CCC1(c2ccccc2)C(=O)NC(=O)NC1=O [Phenobarbital]
RNA-releasing Activity ([1]; 80 micromoles/kg, intraperitoneal, plasma ~21 days after exposure, control subtracted): 0.08 percent nuclear counts per min | release of the cancer-associated phosphoprotein into the plasma [3]: not induced

c1cc2ccc3cccc4ccc(c1)c2c34 [Pyrene]
RNA-releasing Activity [1, 6]: 0.05 percent nuclear counts per min

Cc1cc2nc3c(=O)[nH]c(=O)nc-3n(C[C@H](O)[C@H](O)[C@H](O)CO)c2cc1C [Riboflavin]
RNA-releasing Activity ([1]; 265 micromoles/kg, intraperitoneal, plasma ~21 days after exposure, control subtracted): 0.01 percent nuclear counts per min | Percentage Inhibition [2, 4]: 11%

C=CCc1ccc2c(c1)OCO2 [Safrole]
RNA-releasing Activity [1, 8]: 5.90 percent nuclear counts per min | Percentage Inhibition [2, 4]: 80%
